The text below walks through data of paper PMC8319832, “Fine-Tuning of Alkaline Residues on the Hydrophilic Face Provides a Non-toxic Cationic α-Helical Antimicrobial Peptide Against Antibiotic-Resistant ESKAPE Pathogens” (Frontiers in Microbiology, 2021).

Holding throughout (assay): Drug sensitivity, Kirby-Bauer test
Common to all, as to parameters: key: 'S' represents susceptibility; 'I' represents intermediate efficacy; 'R' represents resistance

One test relates to S. epidermidis 9092. The format is cell-based. The conditions noted are these: clinical isolate, MRSE. The procedure: (§1) The bacteria used in this study included the standard strains S. aureus ATCC29213 and ATCC25923, E. faecalis ATCC29212, E. coli ATCC25922 and ATCC35218, A. baumannii ATCC19606, K. pneumoniae ATCC700603 and P. aeruginosa ATCC27853, these strains were purchased from the China Center of Type Culture Collection (CCTCC). The antimicrobial activities of the peptides were also determined against clinically isolated strains S. aureus 4188, 9124, 1176, S. epidermidis 9092, 6943, 888, E. faecalis 901, E. faecium 898, E. coli 2678, 2687, K. pneumoniae 9126, P. aeruginosa 9014, 9042, and A. baumannii 906, 13012, 13079, 9068, these strains were acquired from Taihe Hospital, Hubei University of Medicine. The drug sensitivities of the clinical isolates to the antibiotics were determined by the Kirby-Bauer test ([Chinnambedu et al., 2020]).

Another test has as its system S. epidermidis 6943. The format is cell-based. The settings on record: clinical isolate, MRSE. The procedure: as §1
A further test deals with S. epidermidis 888. The format is cell-based. The conditions noted are these: clinical isolate. The procedure:
as §1

The test system of another test is E. coli 2687. The format is cell-based, Escherichia coli. The conditions noted are these: clinical isolate, ESBL. The procedure: as §1
A further test concerns E. coli 2678. The format is cell-based, Escherichia coli. The conditions noted are these: clinical isolate, ESBL. The procedure: as §1
A further test deals with K. pneumoniae 9126. The format is cell-based, Klebsiella pneumoniae. The settings on record: clinical isolate, CRE. The procedure:
as §1

The subject of a further test is P. aeruginosa 9014. The format is cell-based, Pseudomonas aeruginosa. The settings on record: clinical isolate, CRE, MDR. Here is the method:
as §1

The next test concerns P. aeruginosa 9042. The format is cell-based, Pseudomonas aeruginosa. The settings on record: clinical isolate. Here is the method: as §1
The subject of a further test is S. aureus 9124. The format is cell-based, Staphylococcus aureus. The settings on record: clinical isolate, MRSA. The procedure:
as §1

A further test concerns S. aureus 4188. The format is cell-based, Staphylococcus aureus. The conditions noted are these: clinical isolate. Here is the method:
as §1

A further test concerns S. aureus 1176. The format is cell-based, Staphylococcus aureus. The settings on record: clinical isolate. The procedure: as §1
Another test has as its system E. faecium 898. The format is cell-based, Enterococcus faecium. The conditions noted are these: clinical isolate. Here is the method: as §1
The test system of a further test is A. baumannii 9068. The format is cell-based, Acinetobacter baumannii. The settings on record: clinical isolate, CRE, MDR. Here is the method:
as §1

A further test deals with A. baumannii 13012. The format is cell-based, Acinetobacter baumannii. The conditions noted are these: clinical isolate, CRE, MDR. The procedure: as §1
Another test relates to A. baumannii 906. The format is cell-based, Acinetobacter baumannii. The settings on record: clinical isolate, CRE, MDR. Here is the method:
as §1

The next test deals with A. baumannii 13079. The format is cell-based, Acinetobacter baumannii. The conditions noted are these: clinical isolate, CRE, MDR. Here is the method:
as §1

As to `C[C@H]1COc2c(N3CCN(C)CC3)c(F)cc3c(=O)c(C(=O)O)cn1c23` [Levofloxacin], the “Drug sensitivity of the isolate to the antibiotic” value (“Drug sensitivity of the isolate” below) with S. epidermidis 9092 is “R”; with S. epidermidis 6943 it was “I”; with S. epidermidis 888, “R”; in the test on E. coli 2687 it was “R”; in the test with E. coli 2678, “R”; with K. pneumoniae 9126, “S”. In addition, the “Drug sensitivity of the isolate” value was “R” with P. aeruginosa 9014; “R” in the test with P. aeruginosa 9042; “S” in the test on S. aureus 9124; “S” in the test with S. aureus 4188; “S” with S. aureus 1176; “R” in the test on E. faecium 898. For the same molecule, the “Drug sensitivity of the isolate” value in the test on A. baumannii 9068, with A. baumannii 13012, in the test on A. baumannii 906 and in the test with A. baumannii 13079 was “R” throughout.
Piperacillin/tazobactam: the “Drug sensitivity of the isolate” value in the test on E. coli 2687 is reported as “S”; in the test with E. coli 2678 it was “S”; in the test with K. pneumoniae 9126, “S”; with P. aeruginosa 9014, “R”; with P. aeruginosa 9042, “S”; with A. baumannii 9068 it was “R”. Also, the “Drug sensitivity of the isolate” value with A. baumannii 13012, in the test on A. baumannii 906 and in the test with A. baumannii 13079 was “R” in each case.
For `Cc1onc(-c2ccccc2)c1C(=O)N[C@@H]1C(=O)N2[C@@H]1SC(C)(C)[C@@H]2C(=O)O` [Oxazocilline], the “Drug sensitivity of the isolate” value is “R” in the test with S. epidermidis 9092; “R” with S. epidermidis 6943; “S” with S. epidermidis 888; “R” in the test on S. aureus 9124; “S” in the test with S. aureus 4188; “S” with S. aureus 1176.
For the molecule `CC(C)(O/N=C(\C(=O)N[C@@H]1C(=O)N2C(C(=O)[O-])=C(C[n+]3ccccc3)CS[C@H]12)c1csc(N)n1)C(=O)O` [Ceftazidime], the “Drug sensitivity of the isolate” value with E. coli 2687 was “R”; in the test with E. coli 2678 it was “S”; in the test on K. pneumoniae 9126, “R”; in the test on P. aeruginosa 9014, “R”; in the test on P. aeruginosa 9042, “S”; in the test on A. baumannii 9068, “R”. Besides, the “Drug sensitivity of the isolate” value with A. baumannii 13012, with A. baumannii 906 and in the test with A. baumannii 13079 was “R” each time.
Regarding `CO[C@@]1(NC(=O)Cc2cccs2)C(=O)N2C(C(=O)O)=C(COC(N)=O)CS[C@@H]21` [Cefoxitin], the “Drug sensitivity of the isolate” value in the test with S. epidermidis 9092 is given as “R”; in the test with S. epidermidis 6943, “R”; with S. epidermidis 888 it was “I”; in the test with S. aureus 9124, “R”; with S. aureus 4188 it was “R”; in the test on S. aureus 1176 it was “R”.
Take `C[C@@H](O)[C@H]1C(=O)N2C(C(=O)O)=C(S[C@@H]3CN[C@H](C(=O)N(C)C)C3)[C@H](C)[C@H]12` [Meropenem]: the “Drug sensitivity of the isolate” value in the test on E. coli 2687 is recorded as “S”; in the test with E. coli 2678, “S”; with K. pneumoniae 9126 it was “S”; with P. aeruginosa 9014, “I”; with P. aeruginosa 9042 it was “R”; in the test on A. baumannii 9068, “R”. The “Drug sensitivity of the isolate” value in the test on A. baumannii 13012, in the test with A. baumannii 906 and in the test on A. baumannii 13079 was “R” each time.
For the molecule `C[C@@H](O)[C@H]1C(=O)N2C(C(=O)O)=C(SCCN=CN)C[C@H]12` [Imipenem], the “Drug sensitivity of the isolate” value with E. coli 2687 is listed as “S”; in the test with E. coli 2678, “S”; with K. pneumoniae 9126 it was “R”; in the test on P. aeruginosa 9014, “R”; in the test on P. aeruginosa 9042, “R”; in the test on A. baumannii 9068, “R”. In addition, the “Drug sensitivity of the isolate” value with A. baumannii 13012, with A. baumannii 906 and in the test with A. baumannii 13079 was “R” throughout.
Regarding `NCC[C@H](O)C(=O)N[C@@H]1C[C@H](N)[C@@H](O[C@H]2O[C@H](CN)[C@@H](O)[C@H](O)[C@H]2O)[C@H](O)[C@H]1O[C@H]1O[C@H](CO)[C@@H](O)[C@H](N)[C@H]1O` [Amikacin], the “Drug sensitivity of the isolate” value with E. coli 2687 is given as “S”; with E. coli 2678 it was “S”; in the test on K. pneumoniae 9126 it was “S”; with P. aeruginosa 9014, “S”; with P. aeruginosa 9042, “S”; in the test on A. baumannii 9068, “R”. The “Drug sensitivity of the isolate” value in the test on A. baumannii 13012, in the test with A. baumannii 906 and with A. baumannii 13079 was “R” throughout.
`CN(C)[C@@H]1C(O)=C(C(N)=O)C(=O)[C@@]2(O)C(O)=C3C(=O)c4c(O)cccc4[C@@](C)(O)[C@H]3C[C@@H]12` [Tetracycline]: the “Drug sensitivity of the isolate” value in the test with S. epidermidis 9092 is recorded as “R”; in the test with S. epidermidis 6943, “S”; in the test on S. epidermidis 888, “R”; with S. aureus 9124, “R”; with S. aureus 4188 it was “S”; in the test on S. aureus 1176 it was “S”. In addition, the “Drug sensitivity of the isolate” value in the test on E. faecium 898 is on record as “R”.
In the case of Ticarcillin/clavulanic acid, the “Drug sensitivity of the isolate” value in the test with E. coli 2678 is listed as “S”; in the test with K. pneumoniae 9126, “S”; with P. aeruginosa 9014, “R”; in the test on P. aeruginosa 9042, “R”; in the test on A. baumannii 9068, “R”; in the test with A. baumannii 13012 it was “R”. The “Drug sensitivity of the isolate” value in the test on A. baumannii 906 and in the test with A. baumannii 13079 was “R” in each case.
For `CC1(C)S[C@@H]2[C@H](NC(=O)[C@H](N)c3ccccc3)C(=O)N2[C@H]1C(=O)O` [Ampicillin], the “Drug sensitivity of the isolate” value with E. coli 2687, in the test with E. coli 2678, in the test with K. pneumoniae 9126, in the test on P. aeruginosa 9014 and in the test on P. aeruginosa 9042 was “R” each time.
